Source: PMC4521635 (Clinical cancer research : an official journal of the …, 2011)
“Also recorded” adds a separate entry of the source. Like-named read-outs stand apart in the source and are kept apart here.

Assays:
clinical = type: in vivo, human
[1] = 4-day continuous infusion with cyclophosphamide and carboplatin; cited from earlier work
[2] = cited from earlier work
[3] = median, dose level 7, daily dose 21.3 mg/m^2 for 3 days, day 8, phase I patients
[4] = with paclitaxel and carboplatin
[5] = Expanded MTD cohort, TIME + HCT
[6] = TIME regimen with autologous HCT
[7] = dose level 1, topotecan 10 mg/m^2, TIME + HCT
[8] = dose level 2, topotecan 15 mg/m^2, TIME + HCT
[9] = dose level 3, topotecan 20 mg/m^2, TIME + HCT
[10] = dose level 4, topotecan 27 mg/m^2, TIME + HCT
[11] = dose level 5, topotecan 36 mg/m^2, TIME + HCT
[12] = dose level 6, topotecan 48 mg/m^2, TIME + HCT
[13] = dose level 7, topotecan 64 mg/m^2, TIME + HCT
[14] = dose level 8, topotecan 85 mg/m^2, TIME + HCT

CC[C@@]1(O)C(=O)OCc2c1cc1n(c2=O)Cc2cc3c(CN(C)C)c(O)ccc3nc2-1 [topotecan]
AUC, Lactone (clinical; human, in vivo, 3.3 mg/m2): 260 nM·h | AUC, Total (clinical; human, in vivo, 3.3 mg/m2): 560 nM·h | Cl, Lactone (clinical; human, in vivo, 3.3 mg/m2): 27.95 L/h/m^2 | Cl, Total (clinical; human, in vivo, 3.3 mg/m2): 12.97 L/h/m^2 | Cmax (clinical; human, in vivo, 3.3 mg/m2): 0.18 µM | Cmax, Total (clinical; human, in vivo, 3.3 mg/m2): 0.18 µM | T1/2, Lactone (clinical; human, in vivo, 3.3 mg/m2): 2.6 h | T1/2, Total (clinical; human, in vivo, 3.3 mg/m2): 2.7 h | Vdss, Lactone (clinical; human, in vivo, 3.3 mg/m2): 56.6 L/m^2 | Vdss, Total (clinical; human, in vivo, 3.3 mg/m2): 49.2 L/m^2 | AUC (clinical; human, in vivo, 5 mg/m2): 270 nM·h | Cl, Lactone (clinical; human, in vivo, 5 mg/m2): 41.19 L/h/m^2 | Cl, Total (clinical; human, in vivo, 5 mg/m2): 15.44 L/h/m^2 | Cmax (clinical; human, in vivo, 5 mg/m2): 0.2 µM | T1/2, Total (clinical; human, in vivo, 5 mg/m2): 3.0 h | half-life (clinical; human, in vivo, 5 mg/m2): 2.7 h | AUC (clinical; human, in vivo, 6.8 mg/m2): 380 nM·h | AUC, Total (clinical; human, in vivo, 6.8 mg/m2): 860 nM·h | Cl, Lactone (clinical; human, in vivo, 6.8 mg/m2): 39.59 L/h/m^2 | Cl, Total (clinical; human, in vivo, 6.8 mg/m2): 17.14 L/h/m^2 | Cmax (clinical; human, in vivo, 6.8 mg/m2): 0.23 µM | Cmax, Total (clinical; human, in vivo, 6.8 mg/m2): 0.33 µM | T1/2, Total (clinical; human, in vivo, 6.8 mg/m2): 2.6 h | Vdss, Lactone (clinical; human, in vivo, 6.8 mg/m2): 113 L/m^2 | Vdss, Total (clinical; human, in vivo, 6.8 mg/m2): 57.5 L/m^2 | half-life (clinical; human, in vivo, 6.8 mg/m2): 3.4 h | AUC, Lactone (clinical; human, in vivo, 8.9 mg/m2): 700 nM·h | AUC, Total (clinical; human, in vivo, 8.9 mg/m2): 1630 nM·h | Cl, Lactone (clinical; human, in vivo, 8.9 mg/m2): 28.1 L/h/m^2 | Cl, Total (clinical; human, in vivo, 8.9 mg/m2): 12.05 L/h/m^2 | Cmax (clinical; human, in vivo, 8.9 mg/m2): 0.48 µM | Cmax, Total (clinical; human, in vivo, 8.9 mg/m2): 0.52 µM | T1/2, Lactone (clinical; human, in vivo, 8.9 mg/m2): 3.1 h | Vdss, Lactone (clinical; human, in vivo, 8.9 mg/m2): 91.6 L/m^2 | Vdss, Total (clinical; human, in vivo, 8.9 mg/m2): 53.7 L/m^2 | AUC, Lactone (clinical; human, in vivo, 12 mg/m2): 880 nM·h | AUC, Total (clinical; human, in vivo, 12 mg/m2): 1860 nM·h | Cl, Lactone (clinical; human, in vivo, 12 mg/m2): 30.11 L/h/m^2 | Cl, Total (clinical; human, in vivo, 12 mg/m2): 16.43 L/h/m^2 | Cmax (clinical; human, in vivo, 12 mg/m2): 0.61 µM | Cmax, Total (clinical; human, in vivo, 12 mg/m2): 0.65 µM | T1/2, Lactone (clinical; human, in vivo, 12 mg/m2): 3.2 h | T1/2, Total (clinical; human, in vivo, 12 mg/m2): 2.9 h | Vdss, Lactone (clinical; human, in vivo, 12 mg/m2): 94.4 L/m^2 | Vdss, Total (clinical; human, in vivo, 12 mg/m2): 53.3 L/m^2 | AUC, Lactone (clinical; human, in vivo, 15.7 mg/m2): 1480 nM·h | AUC, Total (clinical; human, in vivo, 15.7 mg/m2): 2770 nM·h | Cl, Lactone (clinical; human, in vivo, 15.7 mg/m2): 23.53 L/h/m^2 | Cl, Total (clinical; human, in vivo, 15.7 mg/m2): 12.62 L/h/m^2 | Cmax (clinical; human, in vivo, 15.7 mg/m2): 0.8 µM | Cmax, Total (clinical; human, in vivo, 15.7 mg/m2): 0.87 µM | T1/2, Lactone (clinical; human, in vivo, 15.7 mg/m2): 3.3 h | T1/2, Total (clinical; human, in vivo, 15.7 mg/m2): 3.1 h | Vdss, Lactone (clinical; human, in vivo, 15.7 mg/m2): 76.6 L/m^2 | Vdss, Total (clinical; human, in vivo, 15.7 mg/m2): 48.1 L/m^2 | T1/2, Lactone (clinical; human, in vivo, 21.3 mg/m2): 2.7 h | T1/2, Total (clinical; human, in vivo, 21.3 mg/m2): 2.6 h | AUC, Lactone (clinical; human, in vivo, 28.4 mg/m2): 2400 nM·h | AUC, Total (clinical; human, in vivo, 28.4 mg/m2): 5730 nM·h | Cl, Lactone (clinical; human, in vivo, 28.4 mg/m2): 25.77 L/h/m^2 | Cl, Total (clinical; human, in vivo, 28.4 mg/m2): 10.78 L/h/m^2 | Cmax (clinical; human, in vivo, 28.4 mg/m2): 1.67 µM | Cmax, Total (clinical; human, in vivo, 28.4 mg/m2): 2.12 µM | T1/2, Total (clinical; human, in vivo, 28.4 mg/m2): 2.4 h | Vdss, Lactone (clinical; human, in vivo, 28.4 mg/m2): 81.5 L/m^2 | Vdss, Total (clinical; human, in vivo, 28.4 mg/m2): 41.1 L/m^2 | Cl, Lactone (clinical; [3]): 29.10 L/h/m^2 | Cl, Total (clinical; [3]): 13.43 L/h/m^2 | Vdss, Lactone (clinical; [3]): 95.8 L/m^2 | Vdss, Total (clinical; [3]): 63.9 L/m^2 | median topotecan clearance [1]: 184 mL/min/m^2 | dose-limiting toxicity ([2]; seen at 6 mg/m^2/d, with cyclophosphamide and carboplatin): severe stomatitis requiring parenteral nutrition and narcotic administration | MTD ([2]; single agent, 72-hour continuous infusion, largest dose 11 mg/m^2): not reached | dose-limiting toxicity ([2]; single-agent topotecan with hematopoietic cell support): diarrhea | dose-limiting toxicities [2, 4]: hemorrhagic stomatitis and prolonged hematopoietic recovery | topotecan dose at which 4 cycles could be given [2, 4]: 10 mg/m^2 | MTD of topotecan (daily dose) (3 days, in combination with ifosfamide, mesna, etoposide, followed by autologous HCT): 21.3 mg/m^2/d | Nonrelapse deaths, cause [5]: Arrhythmia (1) and bacterial sepsis (1) | Nonrelapse deaths, number of patients [5]: 2 (13%) | dose-limiting toxicity [6]: Mucositis; also recorded: gastrointestinal toxicity | recommended phase II dose [6]: 64 mg/m^2 | Cortical function, number of patients with grade 3 or 4 [7]: 0 | Enteritis, number of patients with grade 3 or 4 [7]: 0 | Hematuria, number of patients with grade 3 or 4 [7]: 0 | Mucositis (grade 4), number of patients [7]: 1 (25%) | Nonrelapse deaths, number of patients [7]: 0 | Number of days with grade 4 mucositis, median (range) [7]: 0 (0-1) days | Peripheral nerve function, number of patients with grade 3 or 4 [7]: 0 | Pulmonary clinical status, number of patients with grade 3 or 4 [7]: 1 (25%) | Reduction in ejection fraction, number of patients with grade 3 or 4 [7]: 0 | Cortical function, number of patients with grade 3 or 4 [8]: 1 (17%) | Enteritis, number of patients with grade 3 or 4 [8]: 1 (17%) | Hematuria, number of patients with grade 3 or 4 [8]: 1 (17%) | Mucositis (grade 4), number of patients [8]: 2 (33%) | Nonrelapse deaths, number of patients [8]: 0 | Number of days with grade 4 mucositis, median (range) [8]: 0 (0-10) days | Peripheral nerve function, number of patients with grade 3 or 4 [8]: 1 (17%) | Pulmonary clinical status, number of patients with grade 3 or 4 [8]: 1 (17%) | Reduction in ejection fraction, number of patients with grade 3 or 4 [8]: 0 | Cortical function, number of patients with grade 3 or 4 [9]: 0 | Enteritis, number of patients with grade 3 or 4 [9]: 3 (75%) | Hematuria, number of patients with grade 3 or 4 [9]: 1 (25%) | Mucositis (grade 4), number of patients [9]: 2 (50%) | Nonrelapse deaths, number of patients [9]: 0 | Number of days with grade 4 mucositis, median (range) [9]: 2.5 (0-6) days | Peripheral nerve function, number of patients with grade 3 or 4 [9]: 0 | Pulmonary clinical status, number of patients with grade 3 or 4 [9]: 0 | Reduction in ejection fraction, number of patients with grade 3 or 4 [9]: 0 | Cortical function, number of patients with grade 3 or 4 [10]: 1 (20%) | Enteritis, number of patients with grade 3 or 4 [10]: 3 (60%) | Hematuria, number of patients with grade 3 or 4 [10]: 0 | Mucositis (grade 4), number of patients [10]: 4 (80%) | Nonrelapse deaths, number of patients [10]: 0 | Number of days with grade 4 mucositis, median (range) [10]: 2 (0-7) days | Peripheral nerve function, number of patients with grade 3 or 4 [10]: 0 | Pulmonary clinical status, number of patients with grade 3 or 4 [10]: 1 (20%) | Reduction in ejection fraction, number of patients with grade 3 or 4 [10]: 1 (20%) | Cortical function, number of patients with grade 3 or 4 [11]: 1 (11 %) | Enteritis, number of patients with grade 3 or 4 [11]: 4 (44%) | Hematuria, number of patients with grade 3 or 4 [11]: 0 | Mucositis (grade 4), number of patients [11]: 5 (56%) | Nonrelapse deaths, number of patients [11]: 0 | Number of days with grade 4 mucositis, median (range) [11]: 1 (0-20) days | Peripheral nerve function, number of patients with grade 3 or 4 [11]: 0 | Pulmonary clinical status, number of patients with grade 3 or 4 [11]: 0 | Reduction in ejection fraction, number of patients with grade 3 or 4 [11]: 0 | Cortical function, number of patients with grade 3 or 4 [12]: 0 | Enteritis, number of patients with grade 3 or 4 [12]: 2 (40%) | Hematuria, number of patients with grade 3 or 4 [12]: 0 | Mucositis (grade 4), number of patients [12]: 5 (100%) | Nonrelapse deaths, number of patients [12]: 0 | Number of days with grade 4 mucositis, median (range) [12]: 5 (1-9) days | Peripheral nerve function, number of patients with grade 3 or 4 [12]: 0 | Pulmonary clinical status, number of patients with grade 3 or 4 [12]: 0 | Reduction in ejection fraction, number of patients with grade 3 or 4 [12]: 0 | Cortical function, number of patients with grade 3 or 4 [13]: 0 | Enteritis, number of patients with grade 3 or 4 [13]: 4 (57%) | Hematuria, number of patients with grade 3 or 4 [13]: 1 (14%) | Mucositis (grade 4), number of patients [13]: 7 (100%) | Nonrelapse deaths, cause [13]: Fungal infection | Nonrelapse deaths, number of patients [13]: 1 (14%) | Number of days with grade 4 mucositis, median (range) [13]: 6 (4-11) days | Peripheral nerve function, number of patients with grade 3 or 4 [13]: 1 (14%) | Pulmonary clinical status, number of patients with grade 3 or 4 [13]: 0 | Reduction in ejection fraction, number of patients with grade 3 or 4 [13]: 0 | Cortical function, number of patients with grade 3 or 4 [14]: 0 | Enteritis, number of patients with grade 3 or 4 [14]: 3 (60%) | Hematuria, number of patients with grade 3 or 4 [14]: 1 (20%) | Mucositis (grade 4), number of patients [14]: 4 (80%) | Nonrelapse deaths, cause [14]: Septic shock | Nonrelapse deaths, number of patients [14]: 1 (20%) | Number of days with grade 4 mucositis, median (range) [14]: 8 (0-12) days | Peripheral nerve function, number of patients with grade 3 or 4 [14]: 0 | Pulmonary clinical status, number of patients with grade 3 or 4 [14]: 0 | Reduction in ejection fraction, number of patients with grade 3 or 4 [14]: 1 (20%)
